Experimental data as given in ChEMBL document CHEMBL1268996, “Apoptotic action of ursolic acid isolated from Corni fructus in RC-58T/h/SA#4 primary human prostate cancer cells” (2010).
The source made the active and inactive calls. No cut-off for these calls is given here.

Experiments:
Homo sapiens [1] = species on record: Homo sapiens; test: Induction of apoptosis in human RC-58T/h/SA#4 cells assessed as increase in sub-G1 DNA content after 24 hrs by flow cytometry; format: functional, cell-based
Homo sapiens [2] = species on record: Homo sapiens; test: Antiproliferative activity against human RC-58T/h/SA#4 cells after 24 to 72 hrs SRB assay; format: functional, cell-based
Homo sapiens [3] = species on record: Homo sapiens; test: Induction of apoptosis in human RC-58T/h/SA#4 cells assessed as chromatin condensation at 30 to 40 uM after 24 hrs by Hoechst 33258 staining; format: functional, cell-based
[4] = Induction of apoptosis in human RC-58T/h/SA#4 cells assessed as increase in sub-G1 DNA content at 10 ug/ml after 24 hrs by flow cytometry; format: functional
Homo sapiens [5] = species on record: Homo sapiens; test: Induction of apoptosis in human RC-58T/h/SA#4 cells assessed as PARP cleavage by Western blot analysis in presence of 10 uM Z-VAD-fmk caspase inhibitor; format: functional, cell-based
[6] = Induction of apoptosis in human RC-58T/h/SA#4 cells assessed as caspase 8 activation at 40 uM by fluorometric protease assay relative to control; format: functional
Homo sapiens [7] = species on record: Homo sapiens; test: Induction of apoptosis in human RC-58T/h/SA#4 cells assessed as DNA fragmentation ladder at 30 to 40 uM after 24 hrs by agarose gel electrophoresis; format: functional, cell-based
Homo sapiens [8] = species on record: Homo sapiens; test: Antiproliferative activity against human RC-58T/h/SA#4 cells assessed as decrease in viable cells by trypan blue assay; format: functional, cell-based
Homo sapiens [9] = species on record: Homo sapiens; test: Induction of apoptosis in human RC-58T/h/SA#4 cells assessed as caspase 8-mediated Bid protein cleavage at 30 to 40 uM by Western blot analysis; format: functional, cell-based
Homo sapiens [10] = species on record: Homo sapiens; test: Induction of apoptosis in human RC-58T/h/SA#4 cells assessed as increase in pro-apoptotic protein Bax at 30 to 40 uM by Western blot analysis; format: functional, cell-based
Homo sapiens [11] = species on record: Homo sapiens; test: Antiproliferative activity against human RC-58T/h/SA#4 cells at >= 30 uM SRB assay; format: functional, cell-based; conditions: TDE = time-dependent effect
Homo sapiens [12] = species on record: Homo sapiens; test: Induction of apoptosis in human RC-58T/h/SA#4 cells assessed as AIF translocation into nucleus at 30 to 40 uM by Western blot analysis; format: functional, cell-based
Homo sapiens [13] = species on record: Homo sapiens; test: Induction of apoptosis in human RC-58T/h/SA#4 cells assessed as decrease in anti-apoptotic protein Bcl-2 at 30 to 40 uM by Western blot analysis; format: functional, cell-based
[14] = Induction of apoptosis in human RC-58T/h/SA#4 cells assessed as caspase 3 activation at 40 uM by fluorometric protease assay relative to control; format: functional
[15] = Induction of apoptosis in human RC-58T/h/SA#4 cells assessed as increase in sub-G1 DNA content at 20 ug/ml after 24 hrs by flow cytometry; format: functional
[16] = Induction of apoptosis in human RC-58T/h/SA#4 cells assessed as increase in sub-G1 DNA content at 30 ug/ml after 24 hrs by flow cytometry; format: functional
[17] = Induction of apoptosis in human RC-58T/h/SA#4 cells assessed as increase in sub-G1 DNA content at 40 ug/ml after 24 hrs by flow cytometry; format: functional
[18] = Induction of apoptosis in human RC-58T/h/SA#4 cells assessed as caspase 9 activation at 40 uM by fluorometric protease assay relative to control; format: functional
Homo sapiens [19] = species on record: Homo sapiens; test: Induction of apoptosis in human RC-58T/h/SA#4 cells assessed as PARP cleavage by Western blot analysis; format: functional, cell-based
Homo sapiens [20] = species on record: Homo sapiens; test: Induction of apoptosis in human RC-58T/h/SA#4 cells assessed as nuclear fragmentation at 30 to 40 uM after 24 hrs by Hoechst 33258 staining; format: functional, cell-based

C[C@H]1[C@H](C)CC[C@]2(C(=O)O)CC[C@]3(C)C(=CC[C@@H]4[C@@]5(C)CC[C@H](O)C(C)(C)[C@@H]5CC[C@]43C)[C@H]12 [URSOLIC ACID]
Activity (Homo sapiens [1]): Dose-dependent effect | Activity (Homo sapiens [2]): Dose-dependent effect | Activity (Homo sapiens [3]): Active | Activity [4]: 5.41% | Activity (Homo sapiens [5]): inactive | fold change (FC) [6]: 1.8 | Activity (Homo sapiens [7]): Active | Activity (Homo sapiens [8]): Dose-dependent effect | Activity (Homo sapiens [9]): Active | Activity (Homo sapiens [10]): Active | Activity (Homo sapiens [11]): tde | Activity (Homo sapiens [12]): Active | Activity (Homo sapiens [13]): Active | fold change (FC) [14]: 1.8 | Activity [15]: 20.83% | Activity [16]: 48.1% | Activity [17]: 58.6% | fold change (FC) [18]: 1.1 | Activity (Homo sapiens [19]): Active | Activity (Homo sapiens [20]): Active
